# ChEMBL document CHEMBL4706505, “F10, a new camptothecin derivative, was identified as a new orally-bioavailable, potent antitumor agent” (Eur J Med Chem, 2020)
# pIC50: −log10 of the molar value. Activity calls are given as the source filed them. The rule behind the calls is not given here.
# Experiments:
# [1] = Clearance in nude BALB/c mouse serum at 8.0 mg/kg incubated up to 9 hrs, iv administered […] by LC-MS/MS analysis; assay type: ADME, organism-based
# Raji [2] = test: Cytotoxicity against human Raji assessed as reduction in cell viability measured after 72 hrs by MTT assay; assay type: functional, cell-based
# Raji [3] = test: Antitumor activity against NPG mouse xenografted with human Raji cell assessed as decrease in tumor volume at 4 mg/kg, ip measured on the 1 day; assay type: functional
# HeLa = test: Cytotoxicity against human Hela assessed as reduction in cell viability measured after 72 hrs by MTT assay; assay type: functional, cell-based
# [4] = Toxicity in Kunming mouse assessed as mortality at 60 mg/kg, iv measured once every 30 mins upto 10 days; assay type: organism-based; conditions: in vivo, 0.5 h
# [5] = Half life in nude BALB/c mouse serum at 8.0 mg/kg incubated up to 9 hrs, iv administered […] by LC-MS/MS analysis; assay type: ADME, organism-based
# [6] = Solubility of compound in phosphate buffer at pH 7.4 incubated for 24 hrs under shaking condition by HPLC analysis; assay type: physicochemical
# [7] = AUC (0 to infinity) in nude BALB/c mouse serum at 8.0 mg/kg incubated up to 9 hrs, po administered via gavage by LC-MS/MS analysis; assay type: ADME, organism-based; set-up: route oral, dose 8 mg/kg, time <=9; conditions: in vivo
# [8] = molecular target: T1, DNA topoisomerase 1 (Homo sapiens) (UniProt P11387); test: Inhibition of human recombinant topoisomerase I using DNA pBR322 as substrate assessed as relaxed DNA at 1 uM incubated for 30 mins by gel electrophoresis analysis relative to control
# T1 sequence (whole entry): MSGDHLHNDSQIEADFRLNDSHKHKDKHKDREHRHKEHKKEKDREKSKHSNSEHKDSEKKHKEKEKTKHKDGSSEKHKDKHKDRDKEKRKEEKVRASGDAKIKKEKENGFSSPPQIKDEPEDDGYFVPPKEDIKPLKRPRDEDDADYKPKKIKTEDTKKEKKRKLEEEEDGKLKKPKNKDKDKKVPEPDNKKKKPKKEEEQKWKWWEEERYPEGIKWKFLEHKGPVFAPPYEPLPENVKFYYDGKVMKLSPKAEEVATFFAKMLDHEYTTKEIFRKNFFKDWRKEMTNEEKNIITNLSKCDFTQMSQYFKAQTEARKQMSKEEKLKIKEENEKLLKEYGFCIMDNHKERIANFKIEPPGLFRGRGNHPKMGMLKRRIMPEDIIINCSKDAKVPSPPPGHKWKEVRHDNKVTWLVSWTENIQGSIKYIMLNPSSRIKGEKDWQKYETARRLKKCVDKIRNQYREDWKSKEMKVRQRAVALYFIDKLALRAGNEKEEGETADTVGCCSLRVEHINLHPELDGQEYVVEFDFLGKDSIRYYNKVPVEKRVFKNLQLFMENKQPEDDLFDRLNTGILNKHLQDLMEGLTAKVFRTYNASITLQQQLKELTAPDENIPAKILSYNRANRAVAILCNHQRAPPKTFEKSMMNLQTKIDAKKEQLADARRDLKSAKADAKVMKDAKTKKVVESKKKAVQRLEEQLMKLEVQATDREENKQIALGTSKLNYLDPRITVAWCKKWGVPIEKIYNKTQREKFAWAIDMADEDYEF
# Raji [9] = test: Antitumor activity against NPG mouse xenografted with human Raji cell assessed as decrease in tumor volume at 2 mg/kg, ip measured after 5 day; assay type: functional
# HCT-116 [10] = test: Induction of apoptosis in human HCT-116 cells assessed as early apoptotic cells level at 1 uM incubated for 24 hrs by Annexin V-FITC/PI staining based flow cytometry (reference value: 0.17%); assay type: functional
# [11] = Cmax in nude BALB/c mouse serum at 8.0 mg/kg incubated up to 9 hrs, po administered via gavage by LC-MS/MS analysis; assay type: ADME, organism-based; set-up: route oral, dose 8 mg/kg, time <=9
# [12] = Toxicity in NPG mouse xenografted with human Raji cells assessed as body weight loss at 8 mg/kg, ig measured after 5 day; assay type: organism-based; conditions: in vivo, po, 120 h
# NCI-H1975 = test: Cytotoxicity against human NCI-H1975 assessed as reduction in cell viability measured after 72 hrs by MTT assay; assay type: functional, cell-based; conditions: NCI-H1975, 72 h
# HCT-116 [13] = test: Antitumor activity against human HCT-116 cells xenografted in nude BALB/c mouse assessed as tumor growth inhibition at 2 mg/kg, po dosed once the other day for 12 times upto 24 days; assay type: functional; conditions: HCT-116, po, 576 h, time day <=24, read-out: TGI
# [14] = Toxicity in NPG mouse xenografted with human Raji cells assessed as body weight loss at 4 mg/kg, ip measured on the day 1; assay type: organism-based; conditions: in vivo
# [15] = Toxicity in Kunming mouse assessed as mortality at 150 mg/kg ip measured once every 30 mins upto 10 days; assay type: organism-based; conditions: in vivo, 0.5 h
# [16] = Toxicity in NPG mouse xenografted with human Raji cells assessed as body weight loss at 4 mg/kg, ig measured on the 1 day; assay type: organism-based; conditions: in vivo, po, 24 h
# [17] = Clearance in nude BALB/c mouse serum at 8.0 mg/kg incubated up to 9 hrs, po administered via gavage by LC-MS/MS analysis; assay type: ADME, organism-based
# [18] = molecular target: T1, DNA topoisomerase 1 (Homo sapiens); test: Inhibition of human recombinant topoisomerase I using DNA pBR322 as substrate assessed as relaxed DNA at 10 uM incubated for 30 mins by gel electrophoresis analysis relative to control
# [19] = Solubility of compound in phosphate buffer at pH 4.5 incubated for 24 hrs under shaking condition by HPLC analysis; assay type: physicochemical
# HCT-116 [20] = test: Antitumor activity against human HCT-116 cells xenografted in nude BALB/c mouse assessed as tumor growth inhibition at 1 mg/kg, ip dosed once the other day for 24 days; assay type: functional; conditions: HCT-116, ip, 576 h, time 24 day, read-out: TGI
# HCT-116 [21] = test: Antitumor activity against human HCT-116 cells xenografted in nude BALB/c mouse assessed as tumor growth inhibition at 0.2 mg/kg, ip dosed once the other day for 24 days; assay type: functional; conditions: HCT-116, ip, 576 h, time 24 day, read-out: TGI
# HCT-116 [22] = test: Inhibition of colony formation in human HCT-116 cells incubated for 12 days by crystal violet dye based assay; assay type: functional, cell-based; conditions: dose 0.001-1 nM, time 12.0 day
# [23] = molecular target: T1, DNA topoisomerase 1 (Homo sapiens); test: Inhibition of human recombinant topoisomerase I using DNA pBR322 as substrate assessed as relaxed DNA at 100 uM incubated for 30 mins by gel electrophoresis analysis relative to control
# HCT-116 [24] = test: Antitumor activity against human HCT-116 cells xenografted in nude BALB/c mouse assessed as tumor growth inhibition at 0.5 mg/kg, po dosed once the other day for 12 times upto 24 days; assay type: functional; conditions: HCT-116, po, 576 h, time day <=24, read-out: TGI
# HCT-116 [25] = test: Induction of apoptosis in human HCT-116 cells assessed as early apoptotic cells level at 0.001 uM incubated for 24 hrs by Annexin V-FITC/PI staining based flow cytometry (reference value: 0.17%); assay type: functional
# [26] = MRT (0 to infinity) in nude BALB/c mouse serum at 8.0 mg/kg incubated up to 9 hrs, iv administered […] by LC-MS/MS analysis; assay type: ADME, organism-based
# [27] = Toxicity in Kunming mouse assessed as mortality at 300 mg/kg ip measured once every 30 mins upto 10 days; assay type: organism-based; conditions: in vivo, 0.5 h
# [28] = Tmax in nude BALB/c mouse serum at 8.0 mg/kg incubated up to 9 hrs, po administered via gavage by LC-MS/MS analysis; assay type: ADME, organism-based
smiles,measurement,setting,value
CCc1c2c(nc3ccc(OCC(=O)N4CCCCC4)cc13)-c1cc3c(c(=O)n1C2)COC(=O)[C@]3(O)CC,clearance,[1],0.179 mL/min
same,pIC50,Raji [2],8.70
same,Activity,Raji [3],1186 mm3
same,pIC50,HeLa,6.90
same,Activity,[4],Non-Toxic
same,half-life,[5],61.8 min
same,solubility thermodynamic at 24 h,[6],19.9 µg/mL
same,AUC,[7],168.07 h/ng/mL
same,inhibition,[8],38.1%
same,Activity,Raji [9],936 mm3
same,Activity,HCT-116 [10],16.95%
same,Cmax,[11],332 ng/mL
same,Activity,[12],22.5 g
same,pIC50,NCI-H1975,7.08
same,inhibition in vivo at 2 mg/kg,HCT-116 [13],79.6%
same,Activity,[14],24.8 g
same,Activity,[15],Non-Toxic
same,Activity,[16],25.4 g
same,CL/F,[17],0.794 mL/min
same,inhibition,[18],52.3%
same,solubility thermodynamic at 24 h,[19],9.86 µg/mL
same,inhibition in vivo at 1 mg/kg,HCT-116 [20],90.2%
same,inhibition in vivo at 0.2 mg/kg,HCT-116 [21],71.8%
same,inhibition,HCT-116 [22],Active
same,inhibition,[23],63.5%
same,inhibition in vivo at 0.5 mg/kg,HCT-116 [24],48.1%
same,Activity,HCT-116 [25],4.92%
same,MRT inf,[26],13.8 min
same,Activity,[27],Non-Toxic
same,Tmax,[28],19.8 min
